# In a melting point compilation (Tetko et al.; mined from patent text by program, amines drawn as free bases though some values may be those of a salt):
row,melting point,SMILES
1,252 °C,Nc1cc(-c2noc(-c3cnn4c(C(F)(F)F)cc(-c5ccc(Cl)cc5)nc34)n2)ccn1
2,173 to 175 °C,Nc1ccc(C2=NN3C(=O)OCC3Cc3cc4c(cc32)OCO4)cc1 (centres undefined)
3,114 to 116 °C,O=C1N(Cc2cc(-c3ccc(Cl)cc3)oc2C(F)(F)F)c2ccccc2C12COc1cc3c(cc12)OCO3 (centres undefined)
4,59 to 62 °C,CCCCc1oc2ccccc2c1C(=O)NCc1ccc2c(-c3ccc(Cl)cc3)c(OC(Cc3ccccc3)C(=O)OC)ccc2c1 (centres undefined)
5,132 to 136 °C,CC(C)n1nc(-c2nc(-n3cccc3)c(N)nc2-c2ccccc2)ccc1=O
6,94.7 to 96.4 °C,FC(F)(F)CNC(=S)NCc1ccc(OC(F)(F)F)cc1
7,126 to 130 °C,O=C(O)CC(NC(=O)C1CCCN2C(=O)CCC(NC(=O)c3ccccc3)C(=O)N12)C(=O)COC(=O)c1c(Cl)cccc1Cl (centres undefined)
8,166 to 168 °C,COc1nc(C)c(C)nc1NC(=O)N1CCN(c2ccc(C(C)=O)cc2)CC1
9,74 to 76 °C,COc1cc(CC(=O)O)ccc1OCCNC(=O)C1Cc2ccccc2N1S(=O)(=O)c1ccc(-c2cc(C(F)(F)F)ccc2Cl)cc1 (centres undefined)
10,158 °C,COc1ccc2c(=O)c3cccc(OCc4ccccc4)c3oc2c1
11,92 to 93 °C,NCC(c1ccc(Cl)cc1)C1CCCCCC1O (mixture of isomers)
12,133 to 136 °C,Cc1ccc(Oc2nc3nc(C)cc(C)n3n2)c(C)c1
13,83.1 to 84.3 °C,COc1ccc(NC(=O)c2ccccc2F)cc1
14,150 to 153 °C,CC(C)(C)c1ccc(C2C=C(c3ccccc3)NN2c2ccccc2)cc1 (centres undefined)
15,182 to 183 °C,ON=Cc1c(-c2ccccc2Cl)ccc2c1OCO2
16,84 to 86 °C,CCOC(=O)c1cc(=O)c(C(=O)c2ccccc2)co1
17,89 to 90 °C,CC1(C)OC(c2ccc(S(C)(=O)=O)cc2Cl)=C(c2ccccc2)C1=O
18,176 to 178 °C,CC(=O)NS(=O)(=O)c1cncc([N+](=O)[O-])c1
19,143 to 146 °C,CC(=O)Oc1cccc2c1N=CC1CCCN1C2=O (centres undefined)
20,115 to 118 °C,O=C1Cc2cc(NC(=O)C(=O)N3CCC(Cc4ccccc4)CC3)ccc2N1
21,168 to 169 °C,CCCn1nc2c(N)nc3ccccc3c2c1CC(C)(C)NC(=O)c1ccc(F)cc1
22,138 to 139 °C,CC(N)=CC(=O)NC1CCCC1
23,86 to 87 °C,CN(Cc1cc2c3c(c1)c(=O)c(C(=O)NCc1ccc(Cl)cc1)cn3CC(=O)N2C)C[C@@H](O)c1cc2ccccc2o1
24,68 to 70 °C,CCCc1cc(NCc2ccc(Cl)cc2)nc(SCC#N)n1

row,melting point,SMILES
1,155 to 156 °C,Cc1cc(-c2cc(=O)n(C)[nH]2)c(F)cc1Cl
2,154 °C,COc1ccc(OC)c(Nc2nc(-c3cccc([N+](=O)[O-])c3)cs2)c1
3,132 to 134 °C,COC(=O)c1ccc2c(c1)SCCCC2NC(=O)OCc1ccccc1 (centres undefined)
4,83 to 84 °C,CC(C)(C)OC(=O)NCC[C@H]1CC[C@H](COS(C)(=O)=O)CC1
5,109 to 110 °C,C1CNCCNCCNCCNCCNC1
6,230 to 232 °C,CNC(=O)N1C(=O)C(=O)c2cc(F)ccc21
7,140 to 142 °C,Cc1cccc(-c2[nH]c(C(C)C)nc2-c2cccc(-c3cccc(F)c3)c2)n1
8,128 to 133 °C,O=C(c1ccccc1)c1ccc2nc(-c3ccc[nH]3)[nH]c2c1
9,116 to 118 °C,CN=C1N(C)C(=O)CN1c1ccccc1
10,154 to 156 °C,O=C1C2=C(CCCC2)C(=O)N1c1cc([N+](=O)[O-])ccc1F
11,173 to 175 °C,CCc1nnc2c(Cl)nc3cc(OC)ccc3n12
12,291 to 294 °C,O=C(c1ccc(-c2ccccc2)cc1)n1c2cc(O)c(O)cc2c2ccc(O)c(O)c21
13,172 to 174 °C,COc1ccc(OC)c(C(=O)Nc2ccc(N3CCOCC3)cc2C(C)=O)c1
14,228 to 230 °C,COc1ccc(C2=NNS(=O)(=O)Cc3cc4nsnc4cc32)cc1OC
15,105 to 106 °C,O=C(Cc1ccccn1)OC(=O)Cc1ccccn1
16,157 °C,COc1ccc(N2CCN(c3ncc(N)cn3)CC2)cc1
17,196 to 197 °C,Cc1ccc(Cc2cnc(NCCCCc3ncc(Br)cc3N)[nH]c2=O)cn1
18,264 to 265 °C,CN(C)c1ccc(-c2nc3c(N[C@H]4[C@@H](C(N)=O)[C@@H]5C=C[C@H]4C5)c(Br)cnc3[nH]2)cc1
19,124 to 125 °C,CCCCc1nc2cccc(CC#N)c2n1Cc1ccccc1Cl
20,284 to 288 °C,Cc1cc(C)c2ncn(/C=C/C(=O)O)c(=O)c2c1
21,150 to 152 °C,N#Cc1ccc(CN2CC=C(/C=C/c3ccc(F)cc3)CC2)cc1
22,67 to 73 °C,CC(OS(C)(=O)=O)C(C)N1C(=O)c2ccccc2C1=O (centres undefined)
23,175 to 176 °C,COC(=O)c1sc(C)c(Br)c1SC(=O)N(C)C
24,179 to 180 °C,Cn1cnc(COc2nc3c(cc2C(C)(C)C)nnn3-c2ccccc2)n1

row,melting point,SMILES
1,108 to 110 °C,CCOC(=O)C1CN(C(=O)c2cc(OC)c(OC)c(OC)c2)CCN1C(=O)C1=Cc2cc(OC)c(OC)cc2CCC1 (centres undefined)
2,204 to 207 °C,COCc1nc(N)nc(N)c1-c1c(Cl)cccc1Cl
3,196 to 198 °C,COc1cc(F)ccc1CCn1ccn2c(=O)cc(-c3ccncn3)nc12
4,255 to 258 °C,NC(=O)c1sc2ncnc(-c3cccc(NC(=O)Cc4ccccc4)c3)c2c1N
5,104 to 105 °C,CCOC(=O)COc1ccc(NC(=O)OC(C)(C)C)cc1C(F)(F)F
6,170 °C,N#Cc1ccc(NC2CCN(Cc3cccc(C(F)(F)F)c3)CC2)nn1
7,140 to 142 °C,O=C(O)c1c(OCc2ccccc2)c2ccccc2n1-c1ccccc1
8,300 to 301 °C,Cc1ccc2nc3n(c(=O)c2c1)-c1ccc(F)cc1C3=O
9,87 to 89 °C,CCCCCCc1cc(-c2ccccc2)c(OCC(=O)OC)c(-c2ccccc2)c1
10,230 to 233 °C,O=C1c2ccccc2Cc2c(O)cccc21
11,63 to 70 °C,CCCCCCCCCCCCCCCCCC(=O)OC1CC(C)(C)N(OC(C)=O)C(C)(C)C1
12,93 °C,CCCN(CCCCNC(=O)NC1Cc2ccccc2C1)C1CCc2ncsc2C1 (centres undefined)
13,142 to 143 °C,CCCCOc1c(CNC(=O)OC(C)(C)C)n(CC(C)C)c(=O)c2ccc(C(=O)N(C)OC)cc12
14,342 to 343 °C,Cn1c(=O)[nH]c2nccnc2c1=O
15,151 to 153 °C,Cc1ccccc1-c1nsc(S(=O)(=O)N=CN2CCOCC2)n1
16,56 to 59 °C,CNC(=O)NCCSCc1csc(CN(C)C)n1
17,173 °C,O=C(CN1CCNCC1)Nc1ccc2c(c1)C(=O)c1cc(NC(=O)CN3CCNCC3)ccc1C2=O
18,215 to 217 °C,COc1ccc(NC(=S)NCC(OC)OC)cc1
19,203 to 205 °C,CC(C)(C)c1ccnc(C(=O)c2[nH]c3cc(Cl)ccc3c2CC(=O)O)c1
20,105 to 107 °C,CCCCn1c(=O)c2c(ncn2S(=O)(=O)c2ccc(C(C)(C)C)cc2)n(CCCC)c1=O
21,114 to 115 °C,O=C(CCCCBr)NC(=O)C1CC1
22,111 to 114 °C,CCn1c2ccc(C)cc2c2ccc3ccccc3c21
23,128 to 129 °C,O=c1cc(-c2ccccc2)oc2ccc(OCCCCCN3CCC(O)CC3)cc12
24,45 °C,Cc1ncn(C)c1[N+](=O)[O-]

row,melting point,SMILES
1,140 to 143 °C,CCC1(CC(=O)O)CCCc2c1n(C)c1ccccc21 (centres undefined)
2,123 to 126 °C,COCCO[C@@H]1c2ccn3c(Cl)c(C)nc3c2N[C@H](c2ccccc2)[C@H]1O
3,153 to 157 °C,CCOC(=O)c1c(O)n(CC)c2cc(-c3ccncc3)ccc2c1=O
4,185 °C,O=C(O)c1ccc(Cl)c2c1OC(F)(F)O2
5,132 to 135 °C,CN(C)c1ccccc1CS(=O)(=O)c1nccn1-c1ccncc1
6,88 to 90 °C,CCCCCCCCCCCCCCOc1cc(OCCCCCCCCCCCCCC)cc(C(=O)N(CC(=O)O)CC(=O)O)c1
7,205 °C,COc1ccccc1CNc1ccc2cc(Nc3ncco3)ccc2n1
8,200 to 202 °C,Nc1ncnc2c1c(-c1ccc(Oc3ccccc3)cc1)nn2C1CCC2(CC1)OCCO2
9,128 to 129 °C,CC(C)Cc1nc2ccc(C(N)=O)cc2c(-c2ccccc2)c1CN
10,80.5 °C,CCC(C)COc1ccc(-c2ccc(O)cc2)cc1 (centres undefined)
11,170 °C,COC(=O)c1cc(C(=O)c2ncc3ccc(C(=O)OC(C)(C)C)cn23)ccc1[N+](=O)[O-]
12,178 to 179 °C,O=C1N(Cc2ccc(-c3noc(C(F)(F)F)n3)cc2)c2ccccc2C12COc1cc3c(cc12)CCO3 (centres undefined)
13,122 to 123 °C,CCOc1nn(-c2ccc(C(F)(F)F)cn2)cc1CCCOc1c(CC(=O)O)cccc1OC
14,84 to 86 °C,CCCC1CC(=O)c2c(NC(=O)C(=O)OCC)ccc(C)c21 (centres undefined)
15,252 to 254 °C,NS(=O)(=O)c1ccc2c(c1)S(=O)(=O)NC(C1CCCCC1)N2 (centres undefined)
16,102 to 103 °C,CC(=O)c1cc(Br)c(OCCCN2CCC(c3noc4cc(F)ccc34)CC2)c(Br)c1
17,122 to 124 °C,C=CC1CCC2C3CCC4=CC(=O)CCC4(C)C3CCC12C (centres undefined)
18,181 to 183 °C,CN(C(=O)OC(C)(C)C)[C@@H]1CCc2c(c3cc(S(=O)(=O)c4ccccc4)ccc3n2C)C1
19,173 to 174 °C,CCCc1c2nc(C(=O)OC)cc(N(C)S(=O)(=O)c3ccc(C)cc3)c2cc2c(=O)cc(C(=O)OCC)oc12
20,130 to 133 °C,CCc1ccc(S(=O)(=O)n2c(CCC(=O)O)cc3cc(Cl)ccc32)cc1
21,77 to 79 °C,OCCOc1ccc(C(=S)c2ccc(-c3ccccc3)cc2)c(O)c1
22,260 to 262 °C,O=C1CCC(N2C(=O)c3cccc(NC(=O)c4cccc(F)c4)c3C2=O)C(=O)N1 (centres undefined)

row,SMILES,melting point
1,COc1ccc(NC(=O)c2nnn(Cc3ccc(F)cc3)c2C)cc1OC,120 °C
2,N#Cc1ccc(N2C(=O)N(CCF)C3(CCCC3)C2=O)cc1C(F)(F)F,115 °C
3,Nc1cc(OCc2cccc(I)c2)c(C(=O)NC2CN3CCC2CC3)cc1Cl (centres undefined),102 to 104 °C
4,CC(C)N(Cc1nc(-c2ncn3c2CN(C)C(=O)c2ccccc2-3)no1)C(C)C,117 to 119 °C
5,Cn1c(=O)n(C2CCNCC2)c2ccc(Cl)cc21,201 °C
